Experimental findings from ChEMBL document CHEMBL1201862, “PubChem BioAssay data set” (2004) are described below.

For assay [1], the target named is Dual specificity tyrosine-phosphorylation-regulated kinase 1A (Rattus norvegicus, UniProt Q63470). The format is biochemical, Homo sapiens.
Another assay has as its target T1, Coagulation factor XII (Homo sapiens, UniProt P00748).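 Further: activated factor XIIa alpha cleaving a fluorogenic AMC peptide substrate; inhibitor potency from loss of enzyme activity.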
T1 sequence (P00748 whole entry): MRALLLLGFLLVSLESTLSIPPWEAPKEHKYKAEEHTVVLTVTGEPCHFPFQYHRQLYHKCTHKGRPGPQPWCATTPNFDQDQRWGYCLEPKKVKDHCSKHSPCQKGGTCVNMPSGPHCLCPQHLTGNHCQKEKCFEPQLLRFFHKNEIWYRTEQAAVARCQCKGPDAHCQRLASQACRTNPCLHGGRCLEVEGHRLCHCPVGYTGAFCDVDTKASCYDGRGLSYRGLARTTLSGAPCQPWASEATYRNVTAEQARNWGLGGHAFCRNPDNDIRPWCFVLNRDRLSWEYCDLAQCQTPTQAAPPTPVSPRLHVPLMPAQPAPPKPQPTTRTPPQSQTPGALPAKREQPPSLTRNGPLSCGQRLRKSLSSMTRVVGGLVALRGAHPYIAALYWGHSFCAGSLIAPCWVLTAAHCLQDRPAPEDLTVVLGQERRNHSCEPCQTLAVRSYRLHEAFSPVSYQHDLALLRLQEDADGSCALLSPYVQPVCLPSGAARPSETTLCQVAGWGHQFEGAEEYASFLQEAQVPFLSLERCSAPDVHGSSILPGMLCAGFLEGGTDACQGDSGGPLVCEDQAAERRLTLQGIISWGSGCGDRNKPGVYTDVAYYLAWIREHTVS
The format is functional.

Assay [2] has as its target T2, High affinity choline transporter 1 (Homo sapiens, UniProt Q9GZV3).
T2 sequence (Q9GZV3 whole entry): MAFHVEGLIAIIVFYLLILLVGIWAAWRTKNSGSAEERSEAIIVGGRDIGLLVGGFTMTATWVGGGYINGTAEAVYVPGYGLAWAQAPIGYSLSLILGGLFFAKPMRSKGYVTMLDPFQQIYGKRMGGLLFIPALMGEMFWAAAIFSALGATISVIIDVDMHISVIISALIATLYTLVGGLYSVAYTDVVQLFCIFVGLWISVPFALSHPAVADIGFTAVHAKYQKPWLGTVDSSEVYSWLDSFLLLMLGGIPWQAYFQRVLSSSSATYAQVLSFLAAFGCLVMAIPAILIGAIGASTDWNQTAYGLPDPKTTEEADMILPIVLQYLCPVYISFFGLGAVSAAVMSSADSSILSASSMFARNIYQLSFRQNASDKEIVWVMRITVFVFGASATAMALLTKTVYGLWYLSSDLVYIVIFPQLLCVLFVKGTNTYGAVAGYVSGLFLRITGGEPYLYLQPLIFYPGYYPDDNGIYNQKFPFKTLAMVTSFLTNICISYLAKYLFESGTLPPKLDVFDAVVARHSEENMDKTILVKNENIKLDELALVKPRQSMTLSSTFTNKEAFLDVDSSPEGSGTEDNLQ
As to the kind of experiment: human choline transporter blockers, potency – cell-based, 5-point CRC, membrane potential dye, dose response (AID 504840). The format is functional.

Assay [3] has as its target T3, Short transient receptor potential channel 4 (Mus musculus, UniProt Q9QUQ5).
T3 sequence (Q9QUQ5 whole entry): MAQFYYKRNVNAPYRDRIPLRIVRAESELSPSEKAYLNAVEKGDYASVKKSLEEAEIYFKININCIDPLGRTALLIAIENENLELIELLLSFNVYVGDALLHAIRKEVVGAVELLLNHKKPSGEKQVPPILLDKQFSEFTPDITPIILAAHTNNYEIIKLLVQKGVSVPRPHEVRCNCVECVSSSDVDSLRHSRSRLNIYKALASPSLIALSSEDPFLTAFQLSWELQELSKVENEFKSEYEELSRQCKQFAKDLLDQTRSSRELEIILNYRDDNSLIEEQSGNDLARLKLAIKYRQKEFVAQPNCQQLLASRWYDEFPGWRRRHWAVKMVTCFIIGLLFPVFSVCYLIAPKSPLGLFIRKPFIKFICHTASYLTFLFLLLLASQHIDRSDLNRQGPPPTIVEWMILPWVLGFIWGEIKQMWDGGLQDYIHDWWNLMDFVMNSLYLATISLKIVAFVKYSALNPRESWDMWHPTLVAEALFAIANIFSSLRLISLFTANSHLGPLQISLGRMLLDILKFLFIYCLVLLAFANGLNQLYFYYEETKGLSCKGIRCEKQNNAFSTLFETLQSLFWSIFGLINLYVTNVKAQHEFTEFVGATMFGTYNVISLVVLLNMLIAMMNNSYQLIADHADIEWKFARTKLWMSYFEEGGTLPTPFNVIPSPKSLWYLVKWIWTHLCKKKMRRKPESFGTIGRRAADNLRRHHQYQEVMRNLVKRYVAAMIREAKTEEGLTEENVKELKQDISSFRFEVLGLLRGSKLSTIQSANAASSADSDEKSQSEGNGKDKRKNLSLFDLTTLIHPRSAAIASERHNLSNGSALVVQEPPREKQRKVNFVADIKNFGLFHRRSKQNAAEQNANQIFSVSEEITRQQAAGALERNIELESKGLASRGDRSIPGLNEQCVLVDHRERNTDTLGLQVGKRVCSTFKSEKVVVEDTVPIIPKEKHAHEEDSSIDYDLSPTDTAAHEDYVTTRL
As to the kind of experiment: calcium entry via TRPC4 opening agents – cell-based, HEK293 TRPC4/mu-opioid, Fluo-4 calcium, dose response (AID 434937). The format is functional.

Assay [4] addresses DNA dC->dU-editing enzyme APOBEC-3A (Homo sapiens, UniProt P31941). Nature of the assay: Dose Response confirmation of small molecule APOBEC3A DNA Deaminase Inhibitors via a fluorescence-based single-stranded DNA deaminase assay. [Related pubchem assays (depositor defined):AID493011, AID493024]. It is filed as functional.
In assay [5] the target is Eukaryotic translation initiation factor 4H (Homo sapiens, UniProt Q15056). Nature of the assay: eIF4H binding inhibition – biochemical, uHTS, fluorescence polarization, translation initiation inhibitor project, primary screen (AID 2012).
The target of assay [6] is Polyadenylate-binding protein 1 (Homo sapiens, UniProt P11940). Nature of the assay: blockers of PABP interaction with poly(A) – biochemical, fluorescence polarization, […] (AID 2014).
Polyadenylate-binding protein 1, sequence (P11940 whole entry): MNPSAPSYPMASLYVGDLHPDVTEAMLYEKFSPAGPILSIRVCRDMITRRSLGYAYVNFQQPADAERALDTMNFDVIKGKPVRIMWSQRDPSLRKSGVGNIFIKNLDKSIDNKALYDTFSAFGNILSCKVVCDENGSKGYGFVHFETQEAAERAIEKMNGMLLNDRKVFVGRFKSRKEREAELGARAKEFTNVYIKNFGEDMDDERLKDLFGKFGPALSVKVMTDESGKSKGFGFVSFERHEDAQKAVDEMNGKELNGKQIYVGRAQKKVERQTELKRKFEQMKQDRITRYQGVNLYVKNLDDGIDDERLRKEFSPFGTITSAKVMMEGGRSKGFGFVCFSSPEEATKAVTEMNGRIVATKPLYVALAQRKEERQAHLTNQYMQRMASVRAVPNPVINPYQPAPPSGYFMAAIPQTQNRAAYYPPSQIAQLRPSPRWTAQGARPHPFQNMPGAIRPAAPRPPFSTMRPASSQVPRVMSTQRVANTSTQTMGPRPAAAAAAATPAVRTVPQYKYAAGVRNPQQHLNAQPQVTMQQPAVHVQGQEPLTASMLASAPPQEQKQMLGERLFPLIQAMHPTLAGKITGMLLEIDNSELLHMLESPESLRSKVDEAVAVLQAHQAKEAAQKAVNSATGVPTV
Assay [7] addresses DNA dC->dU-editing enzyme APOBEC-3G (Homo sapiens, UniProt Q9HC16). It is filed as functional.
For assay [8], the target named is T4, Carboxy-terminal domain RNA polymerase II polypeptide A small phosphatase 1 (Homo sapiens, UniProt Q9GZU7).
T4 sequence (Q9GZU7 whole entry): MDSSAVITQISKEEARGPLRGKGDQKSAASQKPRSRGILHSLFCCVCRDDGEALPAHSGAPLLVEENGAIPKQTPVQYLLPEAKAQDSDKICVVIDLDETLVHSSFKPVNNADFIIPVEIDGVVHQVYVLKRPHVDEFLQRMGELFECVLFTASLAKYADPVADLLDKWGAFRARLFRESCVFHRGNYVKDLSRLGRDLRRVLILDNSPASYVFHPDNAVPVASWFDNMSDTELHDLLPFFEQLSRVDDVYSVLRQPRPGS
As to the kind of experiment: CTDSP1 inhibitors, concentration-response, biochemical, absorbance readout, ultra-high-throughput screen actives (AID 540297). The format is functional.

Assay [9] addresses T3, Short transient receptor potential channel 4. Nature of the assay: block of DAMGO-driven TRPC4 calcium entry – cell-based, HEK293 TRPC4/mu-opioid, Fluo-4 calcium, dose response (AID 434942).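 Further: potency of inhibitors blocking the TRPC4 calcium response.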 It is filed as functional.

Active and inactive are the calls of the source.

DNA dC->dU-editing enzyme APOBEC-3A, sequence (P31941 whole entry): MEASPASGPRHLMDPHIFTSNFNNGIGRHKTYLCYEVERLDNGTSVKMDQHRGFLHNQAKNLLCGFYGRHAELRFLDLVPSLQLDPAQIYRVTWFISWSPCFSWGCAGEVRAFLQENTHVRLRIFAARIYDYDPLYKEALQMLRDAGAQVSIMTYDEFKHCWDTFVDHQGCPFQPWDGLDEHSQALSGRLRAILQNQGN
DNA dC->dU-editing enzyme APOBEC-3G, sequence (Q9HC16 whole entry, the tested form may be a part): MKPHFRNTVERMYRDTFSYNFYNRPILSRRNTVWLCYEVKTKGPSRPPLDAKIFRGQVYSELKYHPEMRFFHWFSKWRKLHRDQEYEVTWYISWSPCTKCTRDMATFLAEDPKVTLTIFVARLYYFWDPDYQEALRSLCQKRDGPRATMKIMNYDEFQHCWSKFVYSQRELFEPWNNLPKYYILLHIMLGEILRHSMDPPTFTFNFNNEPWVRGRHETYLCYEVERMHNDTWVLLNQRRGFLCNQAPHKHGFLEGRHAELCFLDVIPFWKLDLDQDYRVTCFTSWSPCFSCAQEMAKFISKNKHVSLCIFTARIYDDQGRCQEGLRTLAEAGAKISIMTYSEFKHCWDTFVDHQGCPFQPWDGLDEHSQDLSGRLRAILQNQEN

Consider `COc1ccc2[nH]c3c(c2c1)CCNC3=O`, for which the concentration at half-maximal activity (AC50) in [1] is 0.845 µM (active).

For `CCCN(CCC)CCNC(=O)c1cc2c(=O)n(C)c3ccccc3c2n1C`, the AC50 in assay [1] was 13.4 µM (active).

For `Cc1ccc2c(C)c(C(=O)Nc3nnc(C)s3)oc2c1`, the IC50 at Coagulation factor XII was > 50 µM (inactive).

On to `N=C1C[N+](CC23CC4CC(CC(C4)C2)C3)=NO1`, for which the IC50 in [2] was 13.5 µM (active). The concentration for a half-maximal effect (EC50) in assay [3] was 1.06 µM (active).

Consider `O=C(NCc1ccco1)c1ccc2c(c1)CCO2`, for which the IC50 at Coagulation factor XII is > 50 µM (inactive).

In the case of `Cc1c(C)n(CCC#N)c2ccccc12`, the IC50 at Coagulation factor XII is > 50 µM (inactive).

For the molecule `CC/C(=N\NC(=S)NC(C)C)c1ccc(OC(F)F)cc1`, the IC50 at Coagulation factor XII was > 50 µM (inactive).

Regarding `C[n+]1cccc(/C=N/NC(=O)CC23CC4CC(CC(C4)C2)C3)c1`, the 50% inhibitory concentration (IC50) in assay [4] was 3.04 µM (active); in assay [5], > 100 µM (inactive); in assay [6], 5.14 µM (active); in [7], 3.28 µM (active).

In the case of `CCOC(=O)C1(CCOc2ccccc2)CCN(Cc2cc(OC)ccc2OC)CC1`, the concentration for a half-maximal effect (EC50) in [3] is 3.76 µM (active).

For the molecule `Fc1ccccc1Sc1ccccc1CNC1=NCCN1`, the results for the IC50 in [4], in assay [7] and in [8] were 1.35 µM (active), 2.77 µM (active) and 4.12 µM (active), respectively. In addition, in [9], the EC50 is 944 nM (active).
